For orientation: IC50 means the concentration that gives 50% inhibition.

The text below walks through data of BindingDB's records for doi:10.1021/acschembio.6b01133 (Merck & Co. Inc, 2017).

“And” between values parts separate entries of the source, which are not always exact repeats. Equal entries are not always repeated. Some results are limits rather than exact numbers.

Common to all, as to experiment: RNAP-Inhibition Assay
Conditions in all cases: 37 °C

Experiment [1] concerns the target DNA-directed RNA polymerase subunit beta (Escherichia coli (strain K12), UniProt P0A8V2). The method, then: (§1) Fluorescence-detected RNAP inhibition assays in Tables 1 and 4 were performed using a DNA fragment containing the lacUV5 promoter as a template and the profluorescent ATP analog γ-[2′-(2-benzothiazoyl)-6′-hydroxybenzothiazole]-ATP(BBT-ATP, Jena Biosciences) as a substrate (methods as in ref 32). Fluorescence-detected RNAP inhibition assays in Figure 2C were performed essentially as described in refs 33 and 34. The assay used a proprietary circular single-stranded DNA as a template (Kool NC-45 Universal RNAP Template, Epicenter). […] A total of 5 μL of 20 nM recombinant RNAP in assay buffer [50 mM HEPES (pH = 8.0), 50 mM KCl, 4 mM MgCl2, 5% glycerol (v/v), 1 mM DTT, 0.1 mg mL−1 BSA, and 0.01% Triton X-100 (v/v)] was then added. After a 30 min incubation at RT, 5 μL of assay buffer solution containing 0.04 ng/μL DNA template and rNTPs (ATP, CTP, GTP, UTP; 600 μM each; Lucigen) was added to start the reaction. After incubation for 2 h at 37 °C, 70 μL of Quant-iT RiboGreen RNA Reagent [1:350 dilution in buffer containing 10 mM Tris-HCl (pH = 7.5) and 1 mM EDTA] was added to stop the reaction and develop the signal. The plate was read using a PheraStar Plus plate reader (BMG).

For experiment [2], the target named is DNA-directed RNA polymerase subunit beta [D516V] (Escherichia coli, D516V). The method, then: as §1
Experiment [3] has as its target DNA-directed RNA polymerase subunit beta [H526D] (Escherichia coli, H526D). The protocol: as §1
Experiment [4] deals with DNA-directed RNA polymerase subunit beta [S531L] (Escherichia coli, S531L). The protocol: as §1

DNA-directed RNA polymerase subunit beta, sequence (P0A8V2 whole entry, the tested form may be a part): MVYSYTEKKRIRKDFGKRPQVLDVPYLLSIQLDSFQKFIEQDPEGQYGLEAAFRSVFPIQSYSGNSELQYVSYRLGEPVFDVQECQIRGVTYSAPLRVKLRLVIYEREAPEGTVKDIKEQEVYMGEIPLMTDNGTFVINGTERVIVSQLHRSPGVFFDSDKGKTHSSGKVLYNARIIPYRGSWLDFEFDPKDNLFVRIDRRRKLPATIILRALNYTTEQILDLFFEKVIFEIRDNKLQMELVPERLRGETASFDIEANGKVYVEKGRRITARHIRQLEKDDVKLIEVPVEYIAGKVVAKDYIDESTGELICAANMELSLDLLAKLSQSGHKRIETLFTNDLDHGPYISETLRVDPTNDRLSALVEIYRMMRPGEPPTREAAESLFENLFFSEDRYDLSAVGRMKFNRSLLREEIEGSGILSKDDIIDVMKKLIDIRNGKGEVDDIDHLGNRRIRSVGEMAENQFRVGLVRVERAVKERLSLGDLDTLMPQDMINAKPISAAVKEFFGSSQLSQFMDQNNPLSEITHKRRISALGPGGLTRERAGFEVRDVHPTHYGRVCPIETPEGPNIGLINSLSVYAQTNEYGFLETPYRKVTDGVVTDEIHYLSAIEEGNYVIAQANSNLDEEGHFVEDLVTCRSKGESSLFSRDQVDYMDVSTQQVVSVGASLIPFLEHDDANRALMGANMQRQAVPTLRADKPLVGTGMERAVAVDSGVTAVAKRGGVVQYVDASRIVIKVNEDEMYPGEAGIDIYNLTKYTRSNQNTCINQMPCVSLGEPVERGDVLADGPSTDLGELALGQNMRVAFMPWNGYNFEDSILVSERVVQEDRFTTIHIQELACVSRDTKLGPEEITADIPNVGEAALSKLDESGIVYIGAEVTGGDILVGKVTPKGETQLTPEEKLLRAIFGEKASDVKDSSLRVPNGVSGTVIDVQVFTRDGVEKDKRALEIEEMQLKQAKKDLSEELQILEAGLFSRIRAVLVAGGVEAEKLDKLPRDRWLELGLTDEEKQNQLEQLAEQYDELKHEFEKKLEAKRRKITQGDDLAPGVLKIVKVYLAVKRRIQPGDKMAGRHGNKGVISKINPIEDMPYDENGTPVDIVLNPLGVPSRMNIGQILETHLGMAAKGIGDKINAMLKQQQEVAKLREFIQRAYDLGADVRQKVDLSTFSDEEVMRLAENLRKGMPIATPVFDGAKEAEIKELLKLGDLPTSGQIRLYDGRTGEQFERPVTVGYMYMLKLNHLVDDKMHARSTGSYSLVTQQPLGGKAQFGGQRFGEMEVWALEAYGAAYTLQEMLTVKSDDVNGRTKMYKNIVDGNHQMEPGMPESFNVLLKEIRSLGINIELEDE

Turning to `CO[C@H]1/C=C/O[C@@]2(C)Oc3c(C)c(O)c4c(O)c(cc(O)c4c3C2=O)NC(=O)/C(C)=C\C=C\[C@H](C)[C@H](O)[C@@H](C)[C@@H](O)[C@@H](C)[C@H](OC(C)=O)[C@@H]1C` [CB-01-11], the IC50 in experiment [1] was 0.03 µM and 0.02 µM; in experiment [2] it was 70 µM; in experiment [3], above 100 µM; in experiment [4], 80 µM.

In the case of `CC(C)Cc1nnc2c(C(=O)NC3c4ccccc4-c4ccccc43)cccn12` [MRL-436], the IC50 is 2 µM and 3 µM in experiment [1]; 4 µM in experiment [2]; 3 µM in experiment [3]; 4 µM in experiment [4].
